The numbers were not newly measured in patent US7329419B2, “Herbal supplement to support weight loss” (Herbalife International, Inc., priority 2004, dated 2008), which cites them from elsewhere.

One series relates to muscle tissues. Conditions: animal studies.

For epigallocatechin-3-gallate [EGCG], under “compared to control”, the increase in metabolism entry is on record as “approximately 5%”. In addition, the respiratory quotient result (in vivo) is “lowers the respiratory quotient”.

As for Gingerols, in the series on muscle tissues, the “energy expenditure (metabolic rate) in muscle tissues” value was “increase energy expenditure”.
